Assay results published in patent US12702702B2, “Application of Caerin 1.1/1.9 combined with anti-CD47 antibody in preparing drug for treating melanoma” (WNL BIOMED TECH PTY. LTD., priority 2022, dated 2026).
Ends that are not written are not given here.

What was measured:
B16 cells [1] = assay: In vivo B16 tumor model, intratumoral injection: survival time and tumor weight; parameters: species or system C57BL/6 mice; settings: 30 μg injected daily for 7 days from DAY 3; alone
Procedure: • 1. Experiment objects: 12 C57BL/6 mice were divided into 3 groups with 4 mice in each group. • 2. Experiment method: • 2.1 Detection of tumor weight: A. Each C57BL/6 mouse was subcutaneously inoculated with 4×10^5 B16 cells, and time of tumor bearing was recorded as DAY 0. On DAY 3, the three groups were respectively injected with 100 μL of PBS solution containing 30 μg of F1/F3 (i.e., Caerin 1.1/Caerin 1.9), 100 μL of PBS solution containing 30 μg of P3, and 100 μL of PBS solution for the negative control group every day, administered for 7 consecutive days; B. a modeling method was the same as above, there were 8 mouse in each group, which were killed at DAY 13, and the tumor was taken and weighed. • 2.2 Detection of cell activity: The experimental process was the same as that in 2.1, tumor tissues were taken and treated into single cell suspensions on DAY 13 for flow staining and detected by using a flow cytometer, and selected flow antibodies were as follows: FITC-CD45.2, APC-cy7-CD3e, Percp-cy5.5-CD4, PE-cy7-CD8a, APC-cy7-B220, PE-NK1.1, PE-F4/80, Percp-cy5.5-CD11b, and FVS510 dye. […]

B16 cells [2] = assay: F1/F3 treatment of nude mice bearing tumor model; format: in vivo; settings: 30 μg intratumoral for 7 days from DAY 3
B16 cells [3] = assay: MTT assay for B16 cell survival; format: cell-based; settings: B16 cells cultured overnight with F1/F3 at 0-20 μg/mL, MTT kit
Procedure: (§1) • 1. An MTT assay was used to detect cell survival condition: 7×10^4 B16 cells per well were cultured overnight with F1/F3 at different concentrations (0, 6, 8, 10, 12, 14, 16, 18, 20 μg/mL) in 4 duplicate wells, and the cell survival condition was detected by using an MTT kit (a product number: C0009M) and an IC50 value was calculated by drawing. Latest results of two independent experiments were shown. • 2. Detection of cell apoptosis: it was divided into a test group and a control group, and the B16 cells were cultured with a complete medium (composed of 1640 basic medium+fetal bovine serum from South American+double antibody (mixed with penicillin and streptomycin at a ratio of 1:1) at a volume ratio of 90:9:1), where Caerin 1.1/Caerin 1.9 was added to the test group with a final concentration of 10 μg/mL, and P3 was added to the control group with a same final concentration of 10 μg/mL. The cells were cultured overnight in a 5% CO2 incubator at 37° C., and their apoptosis conditions were detected by an apoptosis kit (an Annexin V-EGFP apoptosis detection kit, with a product number: C1067M). II. Experimental Results: • 1. In FIG. 1, A represented the cell survival condition at different concentrations, and B represented a calculated survival rate. […] In FIG. 2, A was a cell apoptosis distribution diagram, and B was a statistical analysis result.

B16 cells [4] = assay: Apoptosis detection (Annexin V-EGFP kit) in B16 cells; format: cell-based; settings: 10 μg/mL, cultured overnight, versus P3 control
Procedure: as §1

B16 cells [5] = assay: Flow cytometry of tumor-infiltrating immune cells after F1/F3 injection; format: in vivo, C57BL/6 mice; settings: DAY 13, flow cytometry
Procedure: • 1. Experiment objects: 12 C57BL/6 mice were divided into 3 groups with 4 mice in each group. • 2. Experiment method: • 2.1 Detection of tumor weight: A. Each C57BL/6 mouse was subcutaneously inoculated with 4×10^5 B16 cells, and time of tumor bearing was recorded as DAY 0. On DAY 3, the three groups were respectively injected with 100 μL of PBS solution containing 30 μg of F1/F3 (i.e., Caerin 1.1/Caerin 1.9), 100 μL of PBS solution containing 30 μg of P3, and 100 μL of PBS solution for the negative control group every day, administered for 7 consecutive days; B. a modeling method was the same as above, there were 8 mouse in each group, which were killed at DAY 13, and the tumor was taken and weighed. • 2.2 Detection of cell activity: The experimental process was the same as that in 2.1, tumor tissues were taken and treated into single cell suspensions on DAY 13 for flow staining and detected by using a flow cytometer, and selected flow antibodies were as follows: FITC-CD45.2, APC-cy7-CD3e, Percp-cy5.5-CD4, PE-cy7-CD8a, APC-cy7-B220, PE-NK1.1, PE-F4/80, Percp-cy5.5-CD11b, and FVS510 dye. Changes of macrophage subtypes were detected, tumor tissues were taken and treated into single cell suspensions on DAY 13 for flow staining and detected by using the flow cytometer, and selected flow antibodies were as follows: FITC-CD45.2, PE-F4/80, Percp-cy5.5-CD11b, BV421-Ly6C, and FVS510 dye. • 3. In FIG. 3, A was the survival time of Caerin 1.1/Caerin 1.9 for combined treatment of melanoma-bearing mice, and B was weighted data of tumor size of each group.

CD47 = CD47 and SIRPα expression in B16 tumor tissue by flow cytometry; format: in vivo, C57BL/6 mice; settings: DAY 13, flow cytometry
Procedure: (§2) • 1. Experiment objects: 21 C57BL/6 mice were divided into 3 groups with 7 mice in each group. • 2. Experiment method: A modeling method was the same as that in Experiment example 3, the experiment was divided into a PBS group, a P3 group and an F1/F3 group, tumor tissues were taken and treated into single cell suspensions on DAY 13 for flow staining and detected by using a flow cytometer, two experiments were carried out continuously, and flow antibodies were selected as follows: FITC-CD45.2, FVS510 dye, and BV421-CD47. • 3. Experimental results: This is a summary of results of two independent experiments, and the specific experimental results were shown in FIG. 9.

[6] = as above; format: in vivo, C57BL/6 mice; settings: DAY 13, flow cytometry
Procedure: as §2

m-MDSC = assay: Sorted splenic m-MDSC, in vitro GMCSF stimulation culture; format: cell-based, C57BL/6 mice; settings: 10 ng/ml GMCSF, three days culture, compared with the PBS group
Procedure: (§3) • 1. Experiment objects: 6 C57BL/6 mice were divided into 2 groups with 3 mice in each group. • 2. Experimental process: Each C57BL/6 mouse was subcutaneously inoculated with 4×10^5 B16 cells, and time of tumor bearing was recorded as DAY 0. The two groups were injected with 100 μL of PBS solution containing 30 μg of F1/F3 (i.e., Caerin 1.1/Caerin 1.9) respectively on DAY 3; and the negative control group was injected with 100 μL of PBS solution every day for consecutive 7 days. B16 tumor tissues were taken and treated into single cell suspensions on DAY 13 for flow staining and detected by using a flow cytometer. Selected antibodies were as follows: FITC-CD45.2, Percp-cy5.5-CD11b, APC-Ly6G, BV421-Ly6c, FVS510 dye, and PE-F4/80. A modeling method was the same as above, splenic organs of mice were taken and processed into single cell suspensions on DAY 13, m-MDSC was sorted by using a flow cytometer, and four groups were set up: a PBS group, a PBS+GMCSF group, an F(F1/F3) group, and an F(F1/F3)+GMCSF group. The sorted cells were counted, each group was provided with two multiple wells, with 100,000 cells each well, 10 ng/ml of GMCSF was added to each group, and after three days of stimulating culture, the cells were detected by using the flow cytometer. Selected antibodies were as follows: FITC-CD45.2, Percp-cy5.5-CD11b, APC-Ly6G, BV421-Ly6c, FVS510 dye, and PE-F4/80. • 3. […]

B16 cells [7] = assay: MDSC and macrophage proportions in B16 tumor tissue by flow cytometry; format: in vivo, C57BL/6 mice; settings: 30 μg F1/F3 daily for 7 days, tumor DAY 13, versus PBS
Procedure: as §3

Substance: Caerin 1.1/Caerin 1.9: Caerin 1.1 and Caerin 1.9 polypeptides used together, mass ratio 1:1 (chain 1 GLLSVLGSVAKHVLPHVLPHVVPVIAEHL-NH2; chain 2 GLFGVLGSIAKHVLPHVVPVIAEKL-NH2; not fully specified; ends and bridges not checked)
- tumor growth in vivo (survival time, tumor weight) (B16 cells [1]): effectively inhibit tumor growth
- survival time of tumor-bearing nude mice (B16 cells [2]): significantly prolonged
- IC50 (IC50 half lethal dose), cell survival (B16 cells [3]): 11.76 µg/mL
- apoptosis of B16 cells (B16 cells [4]): significant apoptosis-inducing effect
- number of tissue-resident macrophages for inhibiting tumor immunity (B16 cells [5]): decreased
- expression of INFα receptors in macrophages (B16 cells [5]; tumor tissue): increased
- number of CD8+T cells and CD4+T cells (B16 cells [5]; tumor tissue): increased
- number of inflammatory macrophages for promoting tumor immunity (B16 cells [5]; tumor tissue): increased
- number of macrophages (B16 cells [5]; tumor tissue): increased
- expression of CD47 on tumor cells (CD47): increased obviously
- expression of SIRPα on macrophages [6]: decreased
- macrophages after GMCSF stimulus differentiation of splenic m-MDSC (m-MDSC): more macrophages
- proportion of MDSC, m-MDSC and PMN-MDSC (B16 cells [7]): tended to decrease
- proportion of tumor macrophages in CD45.2+ cells (B16 cells [7]): rising trend
